Assay results from patent publication US9580444B2, “Polycyclic pyrazolinone derivative and herbicide comprising same as effective component thereof” (priority 2013, dated 2017).

Key:
Format in all cases: in vivo
corn [1] = experiment: Test Example-4: phytotoxicity by a foliage treatment after weeds are generated under upland field conditions; settings: 500 g a.i/ha, foliage treatment after emergence, about 14 days after treatment, score 0-5
In short: (§1)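 Weeds sown in upland soil (65 cm^2 vat) and grown 14 days, then foliage-sprayed with diluted wettable powder or emulsifiable concentrate at a predetermined dosage in 4000 L water per hectare. Weed control and corn phytotoxicity were scored about 14 days after treatment on a 0–5 scale.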

[2] = test system: Amaranthus viridis (green amaranthus); experiment: Test Example-2: herbicidal effect by a soil treatment before weeds are generated under upland field conditions; settings: application amount 500 g a.i/ha, soil spray treatment before weeds are generated, about 21 days after the treatment, score 0 to 5
In short: (§2)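 Pre-emergence soil treatment: seeds sown in upland soil and covered with about 0.5 cm soil were sprayed the next day with diluted wettable powder or emulsifiable concentrate at a predetermined dosage. Weed control and corn injury were scored on a 0–5 scale about 21 days after treatment.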

[3] = test system: Chenopodium album (common lambsquarters); experiment: as above; settings: application amount 500 g a.i/ha, soil spray treatment before weeds are generated, about 21 days after the treatment, score 0 to 5
In short: as §2

corn [4] = experiment: Test Example-3: phytotoxicity by a treatment before weeds are generated under upland field conditions; settings: upland soil treatment before emergence, about 21 days after treatment, score 0-5
Excerpt: (§3) Using the formulation prepared according to the methods described above, the herbicidal effect of the bicyclic pyrazolinone derivative of the invention according to the methods shown in Test Examples below was examined. The herbicidal effect with respect to the test weeds or the phytotoxicity with respect to the test crops was examined according to the following criteria, and evaluated in six stage scores of 0 to 5. A vat having an area of 81 cm^2 and a depth of 3.5 cm was filled with upland soil, then, seeds of Ipomoea purpurea (tall morning glory), Amaranthus viridis (green amaranthus), Abutilon theophrasti (velvetleaf), Chenopodium album (common lambsquarters), and corn were seeded thereto, and the seeds were covered with soil of about 0.5 cm. Next day, a wettable powder or an emulsifiable concentrate of the compound of the present invention prepared according to Formulation Example was diluted, and a spray treatment was uniformly performed on the covered oil so as to be a predetermined dosage. The herbicidal effect with respect to the test weeds and the phytotoxicity with respect to corn about 21 days after the treatment were evaluated according to the evaluation criteria in six stages of 0 to 5 described above.

corn [5] = experiment: Test Example-2: phytotoxicity by a soil treatment before weeds are generated under upland field conditions; settings: application amount 500 g a.i/ha, soil spray treatment before weeds are generated, about 21 days after the treatment, score 0 to 5
In short: as §2

[6] = test system: Ipomoea purpurea (tall morning glory); experiment: Test Example-5: herbicidal effect by a foliage treatment after weeds are generated under upland field conditions; settings: foliage treatment after emergence, about 14 days after treatment, score 0-5
Excerpt: as §3, with “While watering was suitably performed on there, the seeds were grown for 14 days. A” for “Next day, a”, “foliage portion of the plant” for “covered oil”, “dosage in the amount of water of 4000 L per hectare.” for “dosage.”, “14” for “21”

[7] = test system: Abutilon theophrasti (velvetleaf); experiment: as above; settings: foliage treatment after emergence, about 14 days after treatment, score 0-5
Excerpt: as §3, with “While watering was suitably performed on there, the seeds were grown for 14 days. A” for “Next day, a”, “foliage portion of the plant” for “covered oil”, “dosage in the amount of water of 4000 L per hectare.” for “dosage.”, “14” for “21”

[8] = test system: Amaranthus viridis (green amaranthus); experiment: as above; settings: foliage treatment after emergence, about 14 days after treatment, score 0-5
Excerpt: as §3, with “While watering was suitably performed on there, the seeds were grown for 14 days. A” for “Next day, a”, “foliage portion of the plant” for “covered oil”, “dosage in the amount of water of 4000 L per hectare.” for “dosage.”, “14” for “21”

[9] = test system: Chenopodium album (common lambsquarters); experiment: as above; settings: foliage treatment after emergence, about 14 days after treatment, score 0-5
Excerpt: as §3, with “While watering was suitably performed on there, the seeds were grown for 14 days. A” for “Next day, a”, “foliage portion of the plant” for “covered oil”, “dosage in the amount of water of 4000 L per hectare.” for “dosage.”, “14” for “21”

[10] = test system: Ipomoea purpurea (tall morning glory); experiment: Test Example-3: herbicidal effect by a treatment before weeds are generated under upland field conditions; settings: upland soil treatment before emergence, about 21 days after treatment, score 0-5
Excerpt: as §3

[11] = test system: Abutilon theophrasti (velvetleaf); experiment: as above; settings: upland soil treatment before emergence, about 21 days after treatment, score 0-5
Excerpt: as §3

[12] = test system: Amaranthus viridis (green amaranthus); experiment: as above; settings: upland soil treatment before emergence, about 21 days after treatment, score 0-5
Excerpt: as §3

[13] = test system: Chenopodium album (common lambsquarters); experiment: as above; settings: upland soil treatment before emergence, about 21 days after treatment, score 0-5
Excerpt: as §3

corn [14] = experiment: Test Example-5: phytotoxicity by a foliage treatment after weeds are generated under upland field conditions; settings: foliage treatment after emergence, about 14 days after treatment, score 0-5
Excerpt: as §3, with “While watering was suitably performed on there, the seeds were grown for 14 days. A” for “Next day, a”, “foliage portion of the plant” for “covered oil”, “dosage in the amount of water of 4000 L per hectare.” for “dosage.”, “14” for “21”

[15] = test system: Eleocharis acicularis (needle spikerush); experiment: Test Example-1: herbicidal effect by a treatment before weeds are generated under submerged conditions; settings: 500 g a.i/ha, pre-emergence treatment, about 15 days after treatment, score 0-5
In short: (§4)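 Paddy-soil cups were puddled, sown with the weeds and kept submerged. On the seeding day, diluted wettable powder or emulsifiable concentrate was applied as a submersing treatment at a predetermined dosage. Herbicidal effect was scored 0–5 about 15 days after treatment.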

[16] = test system: other annual broad leaf weeds (Lindernia procumbens, Rotala indica, Elatine triandra); experiment: as above; settings: 500 g a.i/ha, pre-emergence treatment, about 15 days after treatment, score 0-5
In short: as §4

[17] = test system: Scirpus juncoides (bulrush); experiment: as above; settings: 500 g a.i/ha, pre-emergence treatment, about 15 days after treatment, score 0-5
In short: as §4

[18] = test system: Monochoria vaginalis (monochoria); experiment: as above; settings: 500 g a.i/ha, pre-emergence treatment, about 15 days after treatment, score 0-5
In short: as §4

[19] = test system: Cyperus difformis (smallflower umbrella plant); experiment: as above; settings: 500 g a.i/ha, pre-emergence treatment, about 15 days after treatment, score 0-5
In short: as §4

[20] = test system: Echinochloa oryzicola (barnyard grass); experiment: as above; settings: 500 g a.i/ha, pre-emergence treatment, about 15 days after treatment, score 0-5
In short: as §4

[21] = test system: Abutilon theophrasti (velvetleaf); experiment: Test Example-4: herbicidal effect by a foliage treatment after weeds are generated under upland field conditions; settings: 500 g a.i/ha, foliage treatment after emergence, about 14 days after treatment, score 0-5
In short: as §1

[22] = test system: Amaranthus viridis (green amaranthus); experiment: as above; settings: 500 g a.i/ha, foliage treatment after emergence, about 14 days after treatment, score 0-5
In short: as §1

[23] = test system: Chenopodium album (common lambsquarters); experiment: as above; settings: 500 g a.i/ha, foliage treatment after emergence, about 14 days after treatment, score 0-5
In short: as §1

C#CCOc1cc(-c2c(Cl)n3n(c2=O)CCOCC3)c(Cl)cc1Cl [Example 1-306]
Phytotoxicity Corn (corn [1]): 1 (Herbicidal effect/phytotoxicity was 10% to 30%)
Herbicidal effect Amaranthus viridis [2]: 5 (Herbicidal effect/phytotoxicity was 90% or greater)
Herbicidal effect Chenopodium album [3]: 5 (Herbicidal effect/phytotoxicity was 90% or greater)
Phytotoxicity Corn (corn [4]; 50 g a.i/ha): 0 (Herbicidal effect/phytotoxicity was 0% to 10%)
Phytotoxicity Corn (corn [4]; 100 g a.i/ha): 1 (Herbicidal effect/phytotoxicity was 10% to 30%)
Phytotoxicity Corn (corn [5]): 1 (Herbicidal effect/phytotoxicity was 10% to 30%)
Herbicidal effect Ipomoea purpurea ([6]; 12.5 g a.i/ha): 5 (Herbicidal effect/phytotoxicity was 90% or greater)
Herbicidal effect Ipomoea purpurea ([6]; 25 g a.i/ha): 5 (Herbicidal effect/phytotoxicity was 90% or greater)
Herbicidal effect Abutilon theophrasti ([7]; 12.5 g a.i/ha): 5 (Herbicidal effect/phytotoxicity was 90% or greater)
Herbicidal effect Abutilon theophrasti ([7]; 25 g a.i/ha): 5 (Herbicidal effect/phytotoxicity was 90% or greater)
Herbicidal effect Amaranthus viridis ([8]; 12.5 g a.i/ha): 5 (Herbicidal effect/phytotoxicity was 90% or greater)
Herbicidal effect Amaranthus viridis ([8]; 25 g a.i/ha): 5 (Herbicidal effect/phytotoxicity was 90% or greater)
Herbicidal effect Chenopodium album ([9]; 12.5 g a.i/ha): 5 (Herbicidal effect/phytotoxicity was 90% or greater)
Herbicidal effect Chenopodium album ([9]; 25 g a.i/ha): 5 (Herbicidal effect/phytotoxicity was 90% or greater)
Herbicidal effect Ipomoea purpurea ([10]; 50 g a.i/ha): 4 (Herbicidal effect/phytotoxicity was 70% to 90%)
Herbicidal effect Ipomoea purpurea ([10]; 100 g a.i/ha): 5 (Herbicidal effect/phytotoxicity was 90% or greater)
Herbicidal effect Abutilon theophrast ([11]; 50 g a.i/ha): 3 (Herbicidal effect/phytotoxicity was 50% to 70%)
Herbicidal effect Abutilon theophrast ([11]; 100 g a.i/ha): 4 (Herbicidal effect/phytotoxicity was 70% to 90%)
Herbicidal effect Amaranthus viridis ([12]; 50 g a.i/ha): 5 (Herbicidal effect/phytotoxicity was 90% or greater)
Herbicidal effect Amaranthus viridis ([12]; 100 g a.i/ha): 5 (Herbicidal effect/phytotoxicity was 90% or greater)
Herbicidal effect Chenopodium album ([13]; 50 g a.i/ha): 5 (Herbicidal effect/phytotoxicity was 90% or greater)
Herbicidal effect Chenopodium album ([13]; 100 g a.i/ha): 5 (Herbicidal effect/phytotoxicity was 90% or greater)
Phytotoxicity Corn (corn [14]; 12.5 g a.i/ha): 0 (Herbicidal effect/phytotoxicity was 0% to 10%)
Phytotoxicity Corn (corn [14]; 25 g a.i/ha): 0 (Herbicidal effect/phytotoxicity was 0% to 10%)
Herbicidal effect Eleocharis acicularis [15]: 5 (Herbicidal effect/phytotoxicity was 90% or greater)
Herbicidal effect Broadleaf weed [16]: 5 (Herbicidal effect/phytotoxicity was 90% or greater)
Herbicidal effect Scirpus juncoides [17]: 5 (Herbicidal effect/phytotoxicity was 90% or greater)
Herbicidal effect Monochoria vaginalis [18]: 5 (Herbicidal effect/phytotoxicity was 90% or greater)
Herbicidal effect Cyperus difformis [19]: 5 (Herbicidal effect/phytotoxicity was 90% or greater)
Herbicidal effect Echinochloa oryzicola [20]: 5 (Herbicidal effect/phytotoxicity was 90% or greater)
Herbicidal effect Abutilon theophrast [21]: 5 (Herbicidal effect/phytotoxicity was 90% or greater)
Herbicidal effect Amaranthus viridis [22]: 5 (Herbicidal effect/phytotoxicity was 90% or greater)
Herbicidal effect Chenopodium album [23]: 5 (Herbicidal effect/phytotoxicity was 90% or greater)
